Read-outs that look alike come from different tables or passages of the source.
Legend:
[1] = Cytotoxicity assay (MTT) on Vero cells; format: cell-based; details: African green monkey
Method: (§1) Vero (African green monkey kidney, ATCC CCL-81) cells were grown in Eagle’s minimum essential medium (MEM, Gibco™ Thermo Fisher Scientific, Waltham, MA, USA) supplemented with 5% heat-inactivated newborn bovine serum (NBS, Gibco™ Thermo Fisher Scientific, Carlsbad, CA, USA) and 1.5 g/L of sodium bicarbonate in a 5% CO2 atmosphere. For the maintenance medium (MM), the serum concentration was reduced to 1.5%. The C6/36 HT mosquito cell line from Aedes albopictus (ATCC CRL-1660), adapted to grow at 33 °C, was cultured in L-15 Medium (Leibovitz) supplemented with 0.3% tryptose phosphate broth, 0.02% glutamine, 1% MEM non-essential amino acids solution, and 5% FBS. The original stock of DENV-2 strain NGC was prepared in C6/36 cells and titrated via plaque formation in Vero cells.
Confluent cell monolayers in 96-well plates were exposed for 48 h to serial two-fold compound dilutions, four wells for each concentration, and then viability was tested. The concentration range evaluated for extracts was 1–250 µg/mL, and for pure compounds, it was 1–200 µM or 1–100 µM depending on the phytochemical. […] Cell cultures treated with 0.01% concentration of vehicle (DMSO or methanol) were taken as cell control. Cell viability determinations were performed by the 3-(4,5-dimethylthiazol-2-yl)-2,5-diphenyl tetrazolium bromide (MTT, Sigma-Aldrich, St. Louis, MO, USA) method, adding 10 µL of MM containing MTT reagent (final concentration 0.5 mg/mL) to each well. After 2 h of incubation at 37 °C, the supernatants were removed, 100 µL of ethanol was added per well to solubilize the formazan crystals, and absorbance was measured at 595 nm. Viability values (% respect to cell control): The cytotoxic concentration 50% (CC50) was calculated via non-linear regression using GraphPad Prism (v9.0.) software as the compound concentration required to reduce the MTT signal by 50% compared to cell controls treated with vehicle (DMSO or methanol), and it is presented as the mean ± standard deviation (SD) obtained from three independent experiments.

DENV-2 = test: Antiviral activity, virus yield inhibition assay (plaque assay) against DENV-2 in Vero cells; format: cell-based, dengue virus (DENV-2 strain NGC); details: for activity against DENV-2 (in words): DENV-2 in Vero cells
Method: Figure 3 Antiviral activity of dichloromethane (A) and methanolic extracts (B) and against DENV-2 in Vero cells. Cells were infected with DENV-2 (m.o.i. 0.1 PFU/cell) and, after 1 h adsorption at 37 °C, were treated with medium containing different dilutions of the dichloromethane extracts or vehicle. After 48h of infection, viral yield was determined via plaque assay. […] Results are expressed as the mean values ± standard deviation (SD).
Figure 4 Antiviral activity of pure compounds against DENV-2 in Vero cells. Cells were infected with DENV-2 (m.o.i. 0.1 PFU/cell) and, after 1 h adsorption at 37 °C, were treated with medium containing different dilutions of the pure compounds or vehicle (dimethyl sulfoxide). After 48 h of infection, viral yield was determined via plaque assay. Results are expressed as the mean values ± standard deviation (SD).
as §1
Antiviral activity was evaluated with a virus yield inhibition assay. Cells grown in 24-well microplates were infected with DENV-2 at a multiplicity of infection (m.o.i.) of 0.1 PFU/cell, and after 1 h adsorption at 37 °C, the unadsorbed virus was removed by washing with PBS and refed with MM containing different two-fold dilutions of each compound or vehicle (DMSO or methanol). […] The concentration of the solvent used for the control was the maximum present in the highest concentration of the extract or compound evaluated. After 48 h of infection, supernatants were collected and cooled down, and serial dilutions were prepared to infect Vero cell monolayers to measure virus yield via the PFU method. After viral adsorption for 1 h at 37 °C, the virus excess was removed; MM supplemented with 0.7% methylcellulose was added and cells were incubated for 1 week at 37 °C in a 5% CO2 incubator. Finally, cell monolayers were fixed with 10% formaldehyde, washed, and stained with a 1% solution of crystal violet, and PFU were counted. Inhibition values (% respect to viral control): The effective concentration 50% (EC50), as the concentration required to reduce virus yield by 50% in the compound-treated cultures, was calculated via non-linear regression using GraphPad Prism (v9.0) software, compared with viral control treated with vehicle (DMSO or methanol), and presented as the mean ± SD obtained from three independent experiments.

human cancer cell lines = tested on: human cancer cell lines; parameters: method as in PMID 32805622; details: cited from earlier work
[2] = pure phytochemicals, Vero cells, 48 h, MTT, mean of three determinations ± SD, read-out: CC50
[3] = Dengue virus, DENV2, Vero, 48 h, pure phytochemicals, concentration reducing DENV-2 yield by 50%, Vero cells, m.o.i. 0.1, 48 h, mean of three ± SD
[4] = Vero cells (confluent monolayers), pure phytochemicals, Vero cells, 48 h, MTT, mean of three determinations ± SD, read-out: CC50
[5] = pure phytochemicals, concentration reducing DENV-2 yield by 50%, Vero cells, m.o.i. 0.1, 48 h, mean of three ± SD

Row | Molecule | EC50 (DENV-2; [3]) [µM] | CC50 at 48 h [1, 4] [µM] | also measured
1 | C=C1C(=O)O[C@H]2C[C@]3(C)O[C@@H]3[C@@H]3O[C@@H]3C3=C[C@@H](OC3=O)[C@H]12 [Compound 1, mikanolide] | – | – | CC50 [1]: 6.69 ± 0.49 µM; EC50 (DENV-2; Dengue virus, DENV2, Vero, 48 h): > 2 µM
2 | COc1ccc(-c2cc(=O)c3c(O)c(OC)c(OC)cc3o2)cc1O [Compound 13, eupatorin] | > 2 | – | CC50 [1, 2]: > 200 µM
3 | macrocephalide B | – | – | 50% cell growth inhibitions (human cancer cell lines): 6.37 µM
4 | macrocephalide A | – | – | 50% cell growth inhibitions (human cancer cell lines): 0.576 µM
5 | C=C1C(=O)O[C@@H]2/C=C(\C)[C@@H](O)C/C=C(\C)C[C@@H](OC(=O)/C(=C/CO)COC(C)=O)[C@@H]12 [Compound 7, santhemoidin C] | 3.1 | 21 ± 3.65 | EC50 (DENV-2; [5]): 3.12 ± 1.39 µM
6 | C=C1C(=O)OC2C1CCC(=C)C1CC3OC3(C)C12 (centres unmarked) [Compound 5, estafietin] | > 2 | 23.5 ± 0.99 | –
7 | C=C1CC[C@H]2C(=C)C(=O)O[C@@H]2[C@H]2C(C)=CC(=O)[C@@H]12 [Compound 6, 2-oxo-8-deoxyligustrin] | 3.7 | 21.8 ± 4.15 | EC50 (DENV-2; [5]): 3.72 ± 0.28 µM
8 | COc1c(O)cc2oc(-c3ccc(O)c(O)c3)cc(=O)c2c1O [Compound 10, nepetin] | > 2 | – | CC50 at 48 h [1]: > 100 µM; activity against DENV-2 (in words) (DENV-2): inactive
9 | C=C1C(=O)O[C@@H]2[C@H]3C(C)=CC[C@H]3C(=C)C[C@@H](OC(=O)/C(=C/CO)CO)[C@@H]12 [Compound 3, eupahakonenin B] | > 2 | 11.2 ± 0.36 | –
10 | COc1cc(-c2oc3cc(O)c(OC)c(O)c3c(=O)c2OC)ccc1O [Compound 9, jaceidin] | > 2 | > 100 | –
11 | C=C(C)c1cc2cc(C(C)=O)c(O)cc2o1 [Compound 8, euparin] | 6.8 | – | CC50 at 48 h [1, 2]: > 500 µM; EC50 (DENV-2; [5]): 6.81 ± 0.2 µM
12 | COc1cc(-c2cc(=O)c3c(O)c(OC)c(O)cc3o2)ccc1O [Compound 11, jaceosidin] | > 2 | > 100 | activity against DENV-2 (in words) (DENV-2): inactive
13 | C=C1C(=O)O[C@@H]2/C=C(\C)CC/C=C(\C)C[C@@H](OC(=O)/C(=C/CO)CO)[C@@H]12 [Compound 2, eupatoriopicrin] | – | – | CC50 [1, 2]: 10.8 ± 0.88 µM; EC50 (DENV-2; Dengue virus, DENV2, pure phytochemicals, concentration reducing DENV-2 yield by 50%, Vero cells, m.o.i. 0.1, 48 h, mean of three ± SD, read-out: EC50): > 2 µM
14 | COc1ccc(-c2cc(=O)c3c(O)c(OC)c(OC)cc3o2)cc1OC [Compound 14, 5-demethylsinensetin] | > 2 | 184 ± 27.8 | –
15 | C=C1C(=O)O[C@@H]2/C=C(\CO)CC/C=C(\COC(C)=O)C[C@H](OC(C)=O)[C@@H]12 [Compound 4, minimolide] | > 2 | 10.6 ± 0.55 | –
16 | O=C1C[C@@H](c2ccc(O)c(O)c2)Oc2cc(O)cc(O)c21 [Compound 12, eryodictiol] | > 2 | > 100 | –

Source: paper PMC10891539, “Plant Extracts and Phytochemicals from the Asteraceae Family with Antiviral Properties” (Molecules, 2024)
